The values below come from ChEMBL document CHEMBL1154966, “Metabolic activation of N-thiazol-2-yl benzamide as glucokinase activators: Impacts of glutathione trapping on covalent binding” (Bioorg Med Chem Lett, 2010).

Common to all, as to format: ADME, Microsome
Series [1] has as its system Liver microsomes. As to the kind of experiment: Metabolic stability in rat liver microsomes assessed as covalent binding at 10 uM after 1 hr by scintillation counting in presence of glutathione. In general terms: Liver microsomes are vesicles of endoplasmic reticulum, rich in cytochrome P450 enzymes.
Series [2] deals with Liver microsomes. Briefly: Metabolic stability in rat liver microsomes assessed as covalent binding at 10 uM after 1 hr preincubated for 15 mins with NADPH by scintillation counting.
Series [3] concerns Liver microsomes. Briefly: Metabolic stability in human liver microsomes assessed as covalent binding at 10 uM after 1 hr by scintillation counting in absence of NADPH.
For series [4], the system named is Liver microsomes. As to the kind of experiment: Metabolic stability in human liver microsomes assessed as covalent binding at 10 uM after 1 hr preincubated for 15 mins with NADPH by scintillation counting.
Series [5] concerns Liver microsomes. Briefly: Metabolic stability in rat liver microsomes assessed as covalent binding at 10 uM after 1 hr by scintillation counting in absence of NADPH.

On to `C[C@@H](CO)Oc1cc(Oc2ccc(S(C)(=O)=O)cc2)cc(C(=O)Nc2nccs2)c1`, for which the Stability is recorded as 50 pmolequiv/mg in the series with Liver microsomes [1]; 378 pmolequiv/mg in the series with Liver microsomes [2]; 10 pmolequiv/mg in the series with Liver microsomes [3]; 715 pmolequiv/mg in the series with Liver microsomes [4]; 0 pmolequiv/mg in the series on Liver microsomes [5].
